Measurements taken from patent US7589089B2, “Inhibitors for GlyT-1” (Hoffmann-La Roche Inc., priority 2006, dated 2009).

Biological target: T1, mGlyT-1b (Mus musculus, UniProt P28571)
T1 construct: host or cells: Flp-in-CHO
T1 sequence (P28571 1-651 isoform P28571-2): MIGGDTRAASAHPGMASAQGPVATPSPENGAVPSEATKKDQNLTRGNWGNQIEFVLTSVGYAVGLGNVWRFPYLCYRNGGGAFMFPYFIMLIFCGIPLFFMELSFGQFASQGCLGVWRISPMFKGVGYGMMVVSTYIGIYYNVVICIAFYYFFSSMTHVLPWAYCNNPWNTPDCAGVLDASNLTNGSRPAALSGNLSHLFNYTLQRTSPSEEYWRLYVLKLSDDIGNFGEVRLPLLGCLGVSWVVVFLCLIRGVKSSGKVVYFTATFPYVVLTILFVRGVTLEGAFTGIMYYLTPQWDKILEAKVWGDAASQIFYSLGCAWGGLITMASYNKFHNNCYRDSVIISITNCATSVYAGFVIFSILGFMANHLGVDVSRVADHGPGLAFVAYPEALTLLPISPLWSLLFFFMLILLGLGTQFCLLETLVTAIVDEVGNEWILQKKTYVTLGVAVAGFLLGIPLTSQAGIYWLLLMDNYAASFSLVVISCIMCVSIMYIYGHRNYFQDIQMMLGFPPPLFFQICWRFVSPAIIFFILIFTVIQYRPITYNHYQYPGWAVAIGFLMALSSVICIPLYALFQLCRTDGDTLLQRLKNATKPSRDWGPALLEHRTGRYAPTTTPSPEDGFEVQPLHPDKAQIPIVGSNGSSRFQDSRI
Experiment: Glycine Uptake Inhibition Assay (mGlyT-1b)
Type: cell-based
Procedure: DMEM complete medium: Nutrient mixture F-12 (Gibco Life-technologies), fetal bovine serum (FBS) 5%, (Gibco life technologies), Penicillin/Streptomycin 1% (Gibco life technologies), Hygromycin 0.6 mg/ml (Gibco life technologies), Glutamine 1 mM Gibco life technologies)
Uptake buffer (UB): 150 mM NaCl, 10 mM Hepes-Tris, pH 7.4, 1 mM CaCl2, 2.5 mM KCl, 2.5 mM MgSO4, 10 mM (+) D-glucose.
Flp-in™-CHO (Invitrogen Cat n° R758-07) cells stably transfected with mGlyT1b cDNA.
Glycine Uptake Inhibition Assay (mGlyT-1b)
On day 1 mammalian cells, (Flp-in™-CHO), transfected with mGlyT-1b cDNA, were plated at the density of 40,000 cells/well in complete F-12 medium, without hygromycin in 96-well culture plates. On day 2, the medium was aspirated and the cells were washed twice with uptake buffer (UB). The cells were then incubated for 20 min at 22° C. with either (i) no potential competitor, (ii) 10 mM non-radioactive glycine, (iii) a concentration of a potential inhibitor. A range of concentrations of the potential inhibitor was used to generate data for calculating the concentration of inhibitor resulting in 50% of the effect (e.g. IC50, the concentration of the competitor inhibiting glycine uptake of 50%). A solution was then immediately added containing [^3H]-glycine 60 nM (11-16 Ci/mmol) and 25 μM non-radioactive glycine. The plates were incubated with gentle shaking and the reaction was stopped by aspiration of the mixture and washing (three times) with ice-cold UB. The cells were lysed with scintillation liquid, shaken 3 hours and the radioactivity in the cells was counted using a scintillation counter.

Compound	IC50 [nM]
COc1ccc(C(=O)N(CC(=O)Nc2ccc(Cl)c(Cl)c2)c2ccccc2F)cc1 [Example 21, N-[(3,4-Dichloro-phenylcarbamoyl)-methyl]-N-(2-fluoro-phenyl)-4-methoxy-benzamide]	315
COc1ccc(C(=O)N(CC(=O)Nc2cccc(C(F)(F)F)c2)c2ccccc2)cc1 [Example 27, 4-Methoxy-N-phenyl-N-[(3-trifluoromethyl-phenylcarbamoyl)-methyl]-benzamide]	148
COc1ccc(C(=O)N(CC(=O)Nc2cccc(Cl)c2)c2ccccc2)cc1 [Example 28, N-[(3-Chloro-phenylcarbamoyl)-methyl]-4-methoxy-N-phenyl-benzamide]	267
N#Cc1cccc(C(=O)N(CC(=O)Nc2ccc(Cl)c(Cl)c2)c2ccccc2)c1 [Example 31, 3-Cyano-N-[(3,4-dichloro-phenylcarbamoyl)-methyl]-N-phenyl-benzamide]	350
O=C(CN(C(=O)c1ccc(C(F)(F)F)nc1)c1ccccc1)Nc1ccc(Cl)c(Cl)c1 [Example 37, N-[(3,4-Dichloro-phenylcarbamoyl)-methyl]-N-phenyl-6-trifluoromethyl-nicotinamide]	154
O=C(CN(C(=O)c1ccccc1F)c1ccccc1)Nc1ccc(Cl)c(Cl)c1 [Example 39, N-[(3,4-Dichloro-phenylcarbamoyl)-methyl]-2-fluoro-N-phenyl-benzamide]	291
COc1ccc(C(=O)N(CC(=O)Nc2ccc(Cl)c(Cl)c2)c2ccccc2)cc1 [Example 41, N-[(3,4-Dichloro-phenylcarbamoyl)-methyl]-4-methoxy-N-phenyl-benzamide]	276
N#Cc1ccc(C(=O)N(CC(=O)Nc2cccc(C(F)(F)F)c2)Cc2ccccc2Cl)cc1 [Example 43, N-(2-Chloro-benzyl)-4-cyano-N-[(3-trifluoromethyl-phenylcarbamoyl)-methyl]-benzamide]	339
O=C(CN(Cc1ccccc1Cl)C(=O)c1cc2ccccc2s1)Nc1cccc(C(F)(F)F)c1 [Example 51, Benzo[b]thiophene-2-carboxylic acid (2-chloro-benzyl)-[(3-trifluoromethyl-phenylcarbamoyl)-methyl]-amide]	60
O=C(CN(Cc1ccccc1Cl)C(=O)c1cccc(F)c1)Nc1cccc(C(F)(F)F)c1 [Example 52, N-(2-Chloro-benzyl)-3-fluoro-N-[(3-trifluoromethyl-phenylcarbamoyl)-methyl]-benzamide]	153
O=C(CN(Cc1ccccc1Cl)C(=O)c1ccc(Cl)cc1)Nc1cccc(C(F)(F)F)c1 [Example 53, 4-Chloro-N-(2-chloro-benzyl)-N-[(3-trifluoromethyl-phenylcarbamoyl)-methyl]-benzamide]	241
O=C(CN(Cc1ccccc1Cl)C(=O)c1ccc(OC(F)(F)F)cc1)Nc1cccc(C(F)(F)F)c1 [Example 54, #N!-(2-Chloro-benzyl)-4-trifluoromethoxy-#N!-[(3-trifluoromethyl-phenylcarbamoyl)-methyl]-benzamide]	196
O=C(CN(Cc1ccccc1Cl)C(=O)c1ccc(F)cc1)Nc1cccc(C(F)(F)F)c1 [Example 55, N-(2-Chloro-benzyl)-4-fluoro-N-[(3-trifluoromethyl-phenylcarbamoyl)-methyl]-benzamide]	97
O=C(CN(Cc1ccccc1Cl)C(=O)c1cc2ccccc2s1)Nc1cccc(F)c1 [Example 57, Benzo[b]thiophene-2-carboxylic acid (2-chloro-benzyl)-[(3-fluoro-phenylcarbamoyl)-methyl]-amide]	88
O=C(CN(Cc1ccccc1Cl)C(=O)c1ccc(Cl)cc1)Nc1cccc(F)c1 [Example 59, 4-Chloro-N-(2-chloro-benzyl)-N-[(3-fluoro-phenylcarbamoyl)-methyl]-benzamide]	166
O=C(CN(Cc1ccccc1Cl)C(=O)c1ccc(OC(F)(F)F)cc1)Nc1cccc(F)c1 [Example 60, N-(2-Chloro-benzyl)-N-[(3-fluoro-phenylcarbamoyl)-methyl]-4-trifluoromethoxy-benzamide]	107

Compound	IC50 [nM]
N#Cc1ccc(C(=O)N(CC(=O)Nc2cccc(F)c2)Cc2ccccc2Cl)cc1 [Example 62, N-(2-Chloro-benzyl)-4-cyano-N-[(3-fluoro-phenylcarbamoyl)-methyl]-benzamide]	357
O=C(CN(Cc1cc(F)cc(F)c1)C(=O)c1cc2ccccc2s1)Nc1cccc(F)c1 [Example 63, Benzo[b]thiophene-2-carboxylic acid (3,5-difluoro-benzyl)-[(3-fluoro-phenylcarbamoyl)-methyl]-amide]	70
O=C(CN(Cc1cc(F)cc(F)c1)C(=O)c1ccc(OC(F)(F)F)cc1)Nc1cccc(F)c1 [Example 65, N-(3,5-Difluoro-benzyl)-N-[(3-fluoro-phenylcarbamoyl)-methyl]-4-trifluoromethoxy-benzamide]	278
O=C(CN(Cc1ccc(F)c(F)c1)C(=O)c1cc2ccccc2s1)Nc1cccc(F)c1 [Example 66, Benzo[b]thiophene-2-carboxylic acid (3,4-difluoro-benzyl)-[(3-fluoro-phenylcarbamoyl)-methyl]-amide]	167
O=C(CN(Cc1c(F)cccc1F)C(=O)c1cc2ccccc2s1)Nc1ccc(F)c(Cl)c1 [Example 69, Benzo[b]thiophene-2-carboxylic acid [(3-chloro-4-fluoro-phenylcarbamoyl)-methyl]-(2,6-difluoro-benzyl)-amide]	90
O=C(CN(Cc1c(F)cccc1F)C(=O)c1ccc(OC(F)(F)F)cc1)Nc1ccc(F)c(Cl)c1 [Example 71, N-[(3-Chloro-4-fluoro-phenylcarbamoyl)-methyl]-N-(2,6-difluoro-benzyl)-4-trifluoromethoxy-benzamide]	107
O=C(CN(Cc1ccccc1Cl)C(=O)c1cc2ccccc2s1)Nc1ccc(F)c(Cl)c1 [Example 72, Benzo[b]thiophene-2-carboxylic acid (2-chloro-benzyl)-[(3-chloro-4-fluoro-phenylcarbamoyl)-methyl]-amide]	205
O=C(CN(Cc1ccccc1Cl)C(=O)c1ccc(Cl)cc1)Nc1ccc(F)c(Cl)c1 [Example 74, 4-Chloro-N-(2-chloro-benzyl)-N-[(3-chloro-4-fluoro-phenylcarbamoyl)-methyl]-benzamide]	142
O=C(CN(Cc1ccccc1Cl)C(=O)c1ccc(OC(F)(F)F)cc1)Nc1ccc(F)c(Cl)c1 [Example 75, N-(2-Chloro-benzyl)-N-[(3-chloro-4-fluoro-phenylcarbamoyl)-methyl]-4-trifluoromethoxy-benzamide]	259
O=C(CN(Cc1ccccc1Cl)C(=O)c1ccc(F)cc1)Nc1ccc(F)c(Cl)c1 [Example 76, N-(2-Chloro-benzyl)-N-[(3-chloro-4-fluoro-phenylcarbamoyl)-methyl]-4-fluoro-benzamide]	159
N#Cc1ccc(C(=O)N(CC(=O)Nc2ccc(F)c(Cl)c2)Cc2ccccc2Cl)cc1 [Example 77, N-(2-Chloro-benzyl)-N-[(3-chloro-4-fluoro-phenylcarbamoyl)-methyl]-4-cyano-benzamide]	182
O=C(CN(Cc1c(F)cccc1F)C(=O)c1ccc(F)cc1)Nc1ccc(F)c(Cl)c1 [Example 78, N-[(3-Chloro-4-fluoro-phenylcarbamoyl)-methyl]-N-(2,6-difluoro-benzyl)-4-fluoro-benzamide]	282
O=C(CN(Cc1cccc(F)c1F)C(=O)c1cc2ccccc2s1)Nc1ccc(F)c(Cl)c1 [Example 80, Benzo[b]thiophene-2-carboxylic acid [(3-chloro-4-fluoro-phenylcarbamoyl)-methyl]-(2,3-difluoro-benzyl)-amide]	66
O=C(CN(Cc1cccc(F)c1F)C(=O)c1ccc(Cl)cc1)Nc1ccc(F)c(Cl)c1 [Example 82, 4-Chloro-N-[(3-chloro-4-fluoro-phenylcarbamoyl)-methyl]-N-(2,3-difluoro-benzyl)-benzamide]	108
O=C(CN(Cc1cccc(F)c1F)C(=O)c1ccc(OC(F)(F)F)cc1)Nc1ccc(F)c(Cl)c1 [Example 83, N-[(3-Chloro-4-fluoro-phenylcarbamoyl)-methyl]-N-(2,3-difluoro-benzyl)-4-trifluoromethoxy-benzamide]	78
